# ChEMBL document CHEMBL3507680, “University of Dundee, Gates Library screen for HepG2 cell viability”
# Assay: Human HepG2 cell viability assay in 384 well format
# Format: toxicity, cell-based
# Set-up: dose 125 nL, time 70.5 hour; cytotoxicity at 70.5 h: concentration not given beside the values
# Conditions: HepG2 cells, read-out: Inhibition
row,Structure (SMILES),cytotoxicity at 70.5 h
1,Cc1c(Cl)c(C(F)(F)F)nn1C(C)C(=O)NC1CCN(C)CC1 (stereo unspecified),7.5%
2,CC(C)N1CCCC(C(=O)N(C)CCCc2cnn(C)c2)C1 (stereo unspecified),-2.41%
3,Cc1ccc(CN(C)C(=O)CN2CCCC2Cn2cccn2)o1 (stereo unspecified),-9.22%
4,CC(C)(C)n1ncc2c1CCCC2NCc1ccc2c(c1)OCCO2 (stereo unspecified),29.2%
5,CCCOc1c(CNC2CCSC2)cccc1OC (stereo unspecified),-11.2%
6,CO[C@H]1C[C@@H](O)C12CCN(C(=O)c1cccc(CCC(C)(C)O)c1)CC2,-0.132%
7,Cc1[nH]ccc1C(=O)N1CCC(c2nnc(Cn3cccn3)n2C)CC1,-0.908%
8,CC1CN(C)c2ccccc2CN1CCn1cncn1 (stereo unspecified),-0.327%
9,O=C(NCCc1ccccn1)C1=NN(c2ccccc2)C(=O)CN1,-6.71%
10,O=C(NCc1cn2cccnc2n1)C1CC(=O)N(Cc2ccccn2)C1 (stereo unspecified),-6.73%
11,Cc1noc(C)c1CN1CCN(Cc2nccn2C)CC1,-4.67%
12,COCCC1(CO)CCCN(C(=O)c2cc(C#N)c(=O)[nH]c2C)C1 (stereo unspecified),-0.759%
13,Cc1ccc(CNC(=O)NCC(=O)N2CCCC2)c(N2CCCC2)c1,4.74%
14,Cc1cc(C2CCCN(CCCS(C)(=O)=O)C2)n[nH]1 (stereo unspecified),-4.49%
15,CNC(=O)c1cn[nH]c1C1(C)CCCN(CC2(O)CCCCC2)C1 (stereo unspecified),-6.79%
16,CN1CCC(n2nc(CC3CC3)nc2-c2ccc(F)cc2Cl)CC1,-7.5%
17,Cc1ccc(CN2C[C@H](OCCN(C)C)[C@H]3COC[C@H]32)o1,-0.961%
18,CC(C)(C)S(=O)(=O)c1ccc(N2CCC(n3cccn3)CC2)cn1,6.49%
19,COc1cc(N2CCC3(CCCN3Cc3ccn(C)n3)CC2)ncn1,-3.28%
20,COCCC1COC2(CCN(C(=O)C3CCCCC3)CC2)C1 (stereo unspecified),-5.85%
21,N#Cc1ccc(NCCCN2C(=O)COc3ccccc32)nc1,-1.32%
22,Cc1cc(Cc2ccccc2F)cc(C2CCCNC2)n1 (stereo unspecified),-1.65%
23,Cn1cnc2c1CCN(CC(=O)N(Cc1ccccc1F)C1CC1)C2,-6.36%
24,CCn1cnnc1C1CCN(C(=O)c2cc3c(s2)CCOC3)CC1,-9.84%

row,Structure (SMILES),cytotoxicity at 70.5 h
1,Cc1nc(-c2cc(C(=O)O)co2)cs1,-9.39%
2,CCn1nccc1CNC(=O)C1CCC1,-2.95%
3,CCNC(=O)Cc1ccc(NC(=O)NC(CC)CC)cc1,1.05%
4,CCn1ncnc1C(C)NC(=O)COc1ccc(Cl)cc1Cl (stereo unspecified),-10.4%
5,CC(C)CN1CC[C@@H]2[C@@H]1CCN2C(=O)N(C)C,-11.8%
6,CCc1nc(C)c(C(=O)N2CCNCC2C(=O)NCc2ccncc2)o1 (stereo unspecified),-5.31%
7,N#Cc1ccccc1C(=O)N1CCC2(CC(=O)NC2=O)C1 (stereo unspecified),15.7%
8,O=C(NCc1ccccc1CO)C1COc2ccccc21 (stereo unspecified),-0.572%
9,N#CCCSc1nnc(Cc2ccccc2F)o1,-3.12%
10,CCc1nnc2n1CCN(Cc1ccc3c(c1)OCCO3)C2,15.4%
11,Cc1[nH]nc(CCC(=O)N2CCCC(OCc3cccnc3)C2)c1C (stereo unspecified),1.55%
12,c1ccc(-c2cnn3cc(CN4CCC5(CCO5)CC4)cnc23)cc1,1.13%
13,Cc1c(Cl)c(C(=O)NN2CCOCC2)nn1C,-8.4%
14,CCc1nc(C2CCCN2C(=O)c2cnc[nH]2)no1 (stereo unspecified),-7.25%
15,COC(=O)COc1nc(C(C)C)no1,-10.1%
16,c1cc(CNCc2ccnc(N3CCOCC3)c2)c2c(c1)OCCCO2,-9.7%
17,Cc1nnc(SC2CCc3ccccc3NC2=O)o1 (stereo unspecified),-16.3%
18,CC(=O)N1CC[C@H]2CC(=O)N(C3CCCCC3)CC[C@H]2C1,-2.68%
19,CCCS(=O)(=O)N1C[C@@H]2CC[C@H](C1)N(Cc1cscn1)C2=O,-9.73%
20,CC(C)Cn1nc2ccc(S(=O)(=O)N3CCC(C)CC3)cn2c1=O,-10.3%
21,CN(C)C(=O)C1CCN(C(=O)c2c[nH]c3cc(Cl)ccc23)CC1,-8.29%
22,COc1ncccc1NC(=O)NCC1CCS(=O)(=O)C1 (stereo unspecified),-18.6%
23,COc1cc2c(cc1CN1CCc3sccc3C1C)OCCO2 (stereo unspecified),2.33%
24,CCC(C(=O)NCc1ccncc1)N(c1cccc(Cl)c1)S(C)(=O)=O (stereo unspecified),-2.79%

row,Structure (SMILES),cytotoxicity at 70.5 h
1,CCC(NC(=O)C1CCN(S(=O)(=O)N(C)C)CC1)c1ccc(C)c(C)c1 (stereo unspecified),-5.81%
2,O=C(NCCSC1CCCC1)c1cc(C2CC2)on1,-0.97%
3,Cc1cc(CN2CCN(C(=O)NCc3ccco3)CC2)no1,18.9%
4,COc1ccc(-c2cnc(N(C)C)nc2C2CNCCO2)cc1 (stereo unspecified),-4.32%
5,CC(=O)N1CCC(C(=O)NCCN2CCCC(C)C2)CC1 (stereo unspecified),-7.29%
6,CN(C)CCNC(=O)c1cc2c(s1)CCN2S(C)(=O)=O,-9.71%
7,Cc1oc(C)c(C(=O)N2CCN(Cc3cscn3)CC2)c1C,-7.99%
8,O=C(C1CC1)N1CC2(CCNCC2)C1,-8.48%
9,C=C(C)CN(CC)Cc1nc(C)no1,-6.47%
10,CCCNc1nc(CS(=O)(=O)c2ccccc2)cs1,-7.26%
11,Cc1ccc(CN(C)C(=O)CCNS(=O)(=O)c2cccnc2)cc1,-7.21%
12,CCOC(=O)C1CCCCN1Cc1c[nH]nc1-c1cc2ccccc2o1 (stereo unspecified),-7.32%
13,Cc1cc(C2CCCN(C(=O)CN3CCN(C)CC3)C2)n[nH]1 (stereo unspecified),-11.8%
14,O=c1cc(Cn2ccnc2)nc2n1CCCN(Cc1ccncc1)C2,-21.3%
15,O=S(=O)(c1c(N2CCCC2)ccc2nonc12)N1CCCC1,-1.28%
16,CC(C)[C@H](Nc1cc(-c2ccncc2)nc2ccnn12)C(N)=O,6.65%
17,Cn1c2c(ccc1=O)CC(NS(C)(=O)=O)CC2 (stereo unspecified),27.8%
18,CNC(=O)c1cccc(CCNc2ncc(Br)cn2)c1,7.32%
19,CC(C)Nc1nc2c(s1)C(=O)CN(CC1CC1)C2,2.03%
20,C/C=C(\C)CN1CCC2(CCC(=O)N2OCc2ccccc2F)CC1,-7.98%
21,Cc1ccc(-c2nnc([C@H]3CCN(C4CCC4)C3)o2)cc1,16.3%
22,CC(NC(=O)N1CCCN(C)CC1)c1ccc2c(c1)OCCO2 (stereo unspecified),-6.8%
23,CN(CCc1ccccn1)[C@@H]1CCN(c2cccc(C#N)n2)C[C@H]1O,0.836%
24,CCCC1CCN(C(=O)c2coc(COc3ccc(OC)cc3)n2)C1 (stereo unspecified),-3.1%

row,Structure (SMILES),cytotoxicity at 70.5 h
1,CCN(C)CCNC(=O)Cc1nc(-c2ccco2)oc1C,-13.2%
2,CC(NCC(=O)N(C)C1CC1)c1ccc(S(C)(=O)=O)c(F)c1 (stereo unspecified),-9.06%
3,Cc1nc(CNC2CCc3ncnn3C2)oc1C (stereo unspecified),-5.86%
4,CC(C)CN1CCNC(=O)C12CCN(S(=O)(=O)c1ccc(F)cc1)CC2,-3.61%
5,CCCN1CCCn2nc(CNC(=O)CC(C)n3ccnc3C)cc2C1 (stereo unspecified),9.04%
6,CCNC(=O)C1CCN(Cc2csc(-c3ccc(C)o3)n2)CC1,0.934%
7,Cc1cnccc1CN(C)C(=O)c1ccc(Cn2cnnn2)cc1,37.3%
8,COc1cc(CNC(C)Cn2cccn2)cc(Cl)c1OC (stereo unspecified),-4.38%
9,CC(C)(C)c1cc(NC(=O)C2CCCO2)n(-c2ccccn2)n1 (stereo unspecified),-2.77%
10,CN1CCOC(CN(C(=O)CCCn2cccn2)c2nccs2)C1 (stereo unspecified),-1.25%
11,CN(C)C1CC2(CCN(C(=O)C3(C#N)CC3)CC2)c2ccccc21 (stereo unspecified),-10.7%
12,O=C([C@@H]1CCO[C@@H]2CCN(CC3CCOCC3)C[C@H]21)N1CCCC1,-12.7%
13,CN1CCC(NC(=O)c2cc(Cl)cc(Br)c2O)C1=O (stereo unspecified),-5.52%
14,CCc1noc(C2CCCCN2C(=O)c2ccccc2)n1 (stereo unspecified),-1.29%
15,OCCNc1nccc(-c2c[nH]nc2-c2ccco2)n1,4.01%
16,Cc1ccc(OCC2CCCN(C(=O)CN3CCOCC3)C2)cc1 (stereo unspecified),2.89%
17,Cc1nc(C2CCCN(C(=O)c3csc(C)n3)C2)no1 (stereo unspecified),4.29%
18,CN(CC(=O)N(C)C(c1cccnc1)c1ccc(F)c(F)c1)C1CC1 (stereo unspecified),22.6%
19,CC(C)CN1C[C@H]2C[C@H](C(=O)NC3CCC3)[C@@H](C1)O2,-1.14%
20,Cc1nnc2ccc(C(=O)N3CCSC(C)(C)C3)cn12,11.4%
21,O=c1cccnn1CC1CN(c2ncc(F)cn2)Cc2nccn2C1 (stereo unspecified),-10.5%
22,Cc1oc(-c2ccco2)nc1CN1CCc2cncnc2C1,-1.22%
23,CNC(=O)C1CCCN(C(=O)c2ccccc2-n2cc(CN)cn2)C1 (stereo unspecified),2.43%
24,Cc1noc(C2CN(Cc3ccc4c(c3)CCO4)C2)n1,-11.7%

row,Structure (SMILES),cytotoxicity at 70.5 h
1,CNC(=O)NC(=O)CSc1ccc2c(c1)CCC2,-5.43%
2,NC(=O)c1cccc(CCNC(=O)N2Cc3ccccc3C2)c1,-2.71%
3,Cc1cc(NC(=O)N2CCCC2C(=O)NC2CC2)c2ncccc2c1 (stereo unspecified),-98%
4,COc1ccc(OC)c(-n2c(COC(C)C)n[nH]c2=O)c1,-4.44%
5,COC(=O)CCn1ccc(=O)c2ccc(OC)cc21,19.7%
6,CC(C)(C)c1nc(CNC2CCN(S(C)(=O)=O)CC2)cs1,-8.36%
7,CN(CCc1ccccc1)c1cnn(CC(=O)N2CCSCC2)c(=O)c1,-3.48%
8,COc1cc(C)c(CNC(C)c2csc(C)n2)cc1OC (stereo unspecified),-2.42%
9,Cn1nc(Cn2cccn2)c2c1CN(Cc1ccoc1)C2,-3.73%
10,COCCC(=O)N1CCCC1c1nccnc1Nc1ncccn1 (stereo unspecified),16.8%
11,Cc1cnc(CNC(=O)NCCOc2ncccc2Cl)s1,-3.34%
12,COc1c(CNCc2ccc(S(C)(=O)=O)cc2)c(C)nn1C,0.0381%
13,CC[C@H](N)C(=O)Nc1nn(CC(F)(F)F)c2cc(OC(C)C)ccc12,-14.2%
14,COc1cccc(OCC(=O)N2CCOc3ccncc32)c1,13.2%
15,COc1ccc(CNC(=O)c2nc3c(s2)CCN(C(C)=O)CC3)cc1,-11.1%
16,Cc1cnc(-c2cccc(-c3ccn(CCCO)n3)c2)nc1N(C)C,-3.76%
17,CN(C)CCNc1cc(-c2ncccn2)c2cc[nH]c2n1,-6.11%
18,Cc1ccc(NC(=O)CNC(C)CN2CCOCC2)c(F)c1 (stereo unspecified),-9.12%
19,O=C(C1CCC2(CCN(CC3CC3)CC2)O1)N1CCCC1 (stereo unspecified),-7.11%
20,N#Cc1ccc(Nc2nc3c(s2)C(=O)CN(CC2CC2)C3)cc1,-4.09%
